# Test results taken from publication PMC10722238, “Development and validation of PAMPA-BBB QSAR model to predict brain penetration potential of novel drug candidates” (Frontiers in Pharmacology, 2023).
# Assay: Stirring Double-Sink PAMPA-BBB permeability assay
# Assay type: in vitro ADME, porcine
# Settings: for PAMPA-BBB permeability category of control compound: control compounds used in each plate, category in words; for Papp at 60 min, 0.05 mM: pig, PAMPA, control compounds run in each plate for over 50 plates, 0.5% DMSO, phosphate buffer, room temperature, UV readout, read-out: PAMPA-BBB permeability Pe (mean ± S.D)
# Source text: The stirring Double-SinkTM PAMPA-BBB method patented by Pion Inc. (Billerica, MA) was employed to determine the permeability of compounds ([[…], 2013]). The PAMPA lipid membrane, which consists of porcine brain lipid extract dissolved in alkane (Pion Inc.), was optimized to predict BBB passive permeability. This membrane was immobilized on a PVDF matrix of a 96 well “acceptor” filter plate placed on top of a 96 well “donor” plate containing coated magnetic stirrers. The test articles, stocked in 10 mM DMSO solutions, were diluted to 0.05 mM in aqueous phosphate buffer and the concentration of DMSO was 0.5% in the final solution. During the 60-min permeation study period, conducted at room temperature, the test samples in the donor compartment were stirred using the Gutbox technology (Pion Inc.) to reduce the aqueous boundary layer to 60 μm. The test article concentrations in the “donor” and “acceptor” compartments were measured using a UV plate reader (Nano Quant, Infinite® 200 PRO, Tecan Inc., Männedorf, Switzerland). Permeability (Pe) calculations were performed using Pion Inc. Software and were expressed in units of 10^-6 cm/s.
SMILES,PAMPA-BBB permeability category of control compound,"Papp at 60 min, 0.05 mM [×10⁻⁶ cm/s]"
"Cn1c(=O)c2c(ncn2C)n(C)c1=O [Caffeine, caffeine]",low permeability,< 1
"CC(=O)[C@H]1CC[C@H]2[C@@H]3CCC4=CC(=O)CC[C@]4(C)[C@H]3CC[C@]12C [Progesterone, progesterone]",high permeability,87 ± 10.1
"NC(=O)N1c2ccccc2C=Cc2ccccc21 [Carbamazepine, carbamazepine]",moderate permeability,21 ± 2.3
